Data reported in patent US11407763B2, “Tryptophan hydroxylase inhibitor and pharmaceutical composition including same” (GWANGJU INSTITUTE OF SCIENCE AND TECHNOLOGY, priority 2017, dated 2022).
Where a name gives a salt, the structure may show the parent alone.

Target: TPH1 (tryptophan hydroxylase 1) (Homo sapiens (Human), UniProt P17752)
Assay: TPH1 inhibitor screening assay kit (BPS Bioscience), fluorescence
Format: biochemical
Details: TPH1
Method: In order to confirm the inhibitory effect of the compound represented by formula 1 according to the present invention on the tryptophan hydroxylase activity, it was measured using a TPH1 (tryptophan hydroxylase 1) inhibitor screening assay kit (BPS Bioscience, Catalog #72053). The TPH1 inhibitor screening assay kit was used according to the manufacturer's manual.
Particularly, the synthesized compound was dissolved in DMSO, which was added to a 96-well microplate (10 ? /well), to which TPH1 enzyme was added (40 ? /well). Then, TPH1 reaction solution was added to the microplate (50 ? /well) and the microplate was shaded with aluminum foil. The microplate was transferred to 4° C. environment, shaken carefully and incubated for 4 hours. After adding a quench solution to the microplate (10 ? /well), the TPH1 activity was measured by reading the degree of fluorescence color development with a Flexstation3 microplate reader. At this time, the excitation spectrum was 300 nm and the emission spectrum was 360 nm.

Sequence of TPH1 (tryptophan hydroxylase 1) (P17752 whole entry): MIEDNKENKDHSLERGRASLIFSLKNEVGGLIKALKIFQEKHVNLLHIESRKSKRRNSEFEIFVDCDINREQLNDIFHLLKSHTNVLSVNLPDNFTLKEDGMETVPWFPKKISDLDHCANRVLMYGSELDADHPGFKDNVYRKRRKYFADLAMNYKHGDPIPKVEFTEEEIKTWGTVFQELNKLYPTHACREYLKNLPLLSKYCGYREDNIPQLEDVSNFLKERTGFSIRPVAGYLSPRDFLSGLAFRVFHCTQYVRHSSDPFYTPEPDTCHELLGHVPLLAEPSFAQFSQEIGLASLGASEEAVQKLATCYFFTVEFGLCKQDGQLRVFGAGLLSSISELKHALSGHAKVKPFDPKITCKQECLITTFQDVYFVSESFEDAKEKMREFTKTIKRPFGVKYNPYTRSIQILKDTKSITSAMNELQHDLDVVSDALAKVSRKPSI

IC50 | Compound
36 nM | Cc1ccn(-c2cc(Cl)ccc2[C@@H](Oc2ncnc3c(-c4ccc(C[C@H](N)C(=O)O)cc4)csc23)C(F)(F)F)n1 [Example 8, (S)-2-amino-3-(4-(4-((R)-1-(4-chloro-2-(3-methyl-1H-pyrazole-1-yl)phenyl)-2,2,2-trifluoroethoxy)thieno[3,2-d]pyrimidine-7-yl)phenyl)propionic acid hydrochloride]
98 nM | Cc1ccn(-c2cc(Cl)ccc2[C@@H](Oc2cc(C3=CCC(C[C@H](N)C(=O)O)CC3)nc(N)n2)C(F)(F)F)n1 (stereo partly drawn) [Example 45, (2S)-2-amino-3-(4-(2-amino-6-((R)-1-(4-chloro-2-(3-methyl-1H-pyrazole-1-yl)phenyl)-2,2,2-trifluoroethoxy)pyrimidine-4-yl)cyclohex-3-ene-1-yl)propionic acid]
91 nM | Nc1nc(O[C@H](c2ccc(Cl)cc2C2=CCCOC2)C(F)(F)F)cc(C2=CCC(C[C@H](N)C(=O)O)CC2)n1 (stereo partly drawn) [Example 67, (2S)-2-amino-3-(4-(2-amino-6-((R)-1-(4-chloro-2-(5,6-dihydro-2H-pyran-3-yl)phenyl)-2,2,2-trifluoroethoxy)pyrimidine-4-yl)cyclohex-3-ene-1-yl)propionic acid]

Same assay, conditions: TPH1 enzyme, 4 hours at 4° C., ex 300 nm / em 360 nm

Compound | IC50
Cc1ccn(-c2cc(Cl)ccc2[C@@H](Oc2ncnc3c(-c4ccc(C[C@H](N)C(=O)O)cc4)csc23)C(F)(F)F)n1 [Example 8, (S)-2-amino-3-(4-(4-((R)-1-(4-chloro-2-(3-methyl-1H-pyrazole-1-yl)phenyl)-2,2,2-trifluoroethoxy)thieno[3,2-d]pyrimidine-7-yl)phenyl)propionic acid hydrochloride] | 36 nM
COc1cccc(-c2ccc(Cn3ccc4c(-c5ccc(C[C@H](N)C(=O)O)cc5)nc(N)nc43)cc2)c1 [Example 12, (S)-2-amino-3-(4-(2-amino-7-((3′-methoxy-[1,1′-biphenyl]-4-yl)methyl)-7H-pyrrolo[2,3-d]pyrimidine-4-yl)phenyl)propionic acid hydrochloride] | 297 nM
CCOC(=O)[C@@H](N)Cc1ccc(-c2csc3c(O[C@H](c4ccc(Cl)cc4-n4ccc(C)n4)C(F)(F)F)ncnc23)cc1 [Example 22, ethyl (S)-2-amino-3-(4-(4-((R)-1-(4-chloro-2-(3-methyl-1H-pyrazole-1-yl)phenyl)-2,2,2-trifluoroethoxy)thieno[3,2-d]pyrimidine-7-yl)phenyl)propionate hydrochloride] | 993 nM
COc1cccc(-c2ccc(Cn3ccc4c(-c5ccc(C[C@H](N)C(=O)O)cc5)ncnc43)cc2)c1 [Example 23, (S)-2-amino-3-(4-(7-((3′-methoxy-[1,1′-biphenyl]-4-yl)methyl)-7H-pyrrolo[2,3-d]pyrimidine-4-yl)phenyl)propionic acid hydrochloride] | 578 nM
N[C@@H](Cc1ccc(-c2csc3c(O[C@H](c4ccc(Cl)cc4-c4cccc(F)c4)C(F)(F)F)ncnc23)cc1)C(=O)O [Example 24, (S)-2-amino-3-(4-(4-((R)-1-(5-chloro-3′-fluoro-[1,1′-biphenyl]-2-yl)-2,2,2-trifluoroethoxy)thieno[3,2-d]pyrimidine-7-yl)phenyl)propionic acid hydrochloride] | 565 nM
N[C@@H](Cc1ccc(-c2csc3c(OC(c4ccc(Cl)cc4-c4ccccc4)C(F)(F)F)ncnc23)cc1)C(=O)O (stereo partly drawn) [Example 26, (2S)-2-amino-3-(4-(4-(1-(5-chloro-[1,1′-biphenyl]-2-yl)-2,2,2-trifluoroethoxy)thieno[3,2-d]pyrimidine-7-yl)phenyl)propionic acid hydrochloride] | 679 nM
Cc1ccn(-c2cc(Cl)ccc2[C@@H](Oc2ncnc3c(C4=CCC(C[C@H](N)C(=O)O)CC4)csc23)C(F)(F)F)n1 (stereo partly drawn) [Example 30, (2S)-2-amino-3-(4-(4-((R)-1-(4-chloro-2-(3-methyl-1H-pyrazole-1-yl)phenyl)-2,2,2-trifluoroethoxy)thieno[3,2-d]pyrimidine-7-yl)cyclohex-3-ene-1-yl)propionic acid hydrochloride] | 1510 nM

Further lines, results first:

IC50 | Compound
1820 nM | Cc1ccn(-c2cc(Cl)ccc2[C@@H](Oc2cc(C3=CCC(C[C@H](N)C(=O)O)CC3)nc(C)n2)C(F)(F)F)n1 (stereo partly drawn) [Example 32, (2S)-2-amino-3-(4-(6-((R)-1-(4-chloro-2-(3-methyl-1H-pyrazole-1-yl)phenyl)-2,2,2-trifluoroethoxy)-2-methylpyrimidine-4-yl)cyclohex-3-ene-1-yl)propionic acid hydrochloride]
98 nM | Cc1ccn(-c2cc(Cl)ccc2[C@@H](Oc2cc(C3=CCC(C[C@H](N)C(=O)O)CC3)nc(N)n2)C(F)(F)F)n1 (stereo partly drawn) [Example 45, (2S)-2-amino-3-(4-(2-amino-6-((R)-1-(4-chloro-2-(3-methyl-1H-pyrazole-1-yl)phenyl)-2,2,2-trifluoroethoxy)pyrimidine-4-yl)cyclohex-3-ene-1-yl)propionic acid]
8720 nM | N[C@@H](Cc1ccc(-c2csc3c(OC(c4ccc(Cl)cc4-c4ccc(F)cc4)C(F)(F)F)ncnc23)cc1)C(=O)O (stereo partly drawn) [Example 46, (2S)-2-amino-3-(4-(4-(1-(5-chloro-4′-fluoro-[1,1′-biphenyl]-2-yl)-2,2,2-trifluoroethoxy)thieno[3,2-d]pyrimidine-7-yl)phenyl)propionic acid hydrochloride]
433 nM | Nc1nc(OC(c2ccc(Cl)cc2-c2ccccc2)C(F)(F)F)cc(C2=CCC(C[C@H](N)C(=O)O)CC2)n1 (stereo partly drawn) [Example 48, (2S)-2-amino-3-(4-(2-amino-6-(1-(5-chloro-[1,1′-biphenyl]-2-yl)-2,2,2-trifluoroethoxy)pyrimidine-4-yl)cyclohex-3-ene-1-yl)propionic acid hydrochloride]
204 nM | COc1cccc(-c2ccc([C@@H](Oc3cc(C4=CCC(C[C@H](N)C(=O)O)CC4)nc(N)n3)C(F)(F)F)cc2)c1 (stereo partly drawn) [Example 58, (2S)-2-amino-3-(4-(2-amino-6-((R)-2,2,2-trifluoro-1-(3′-methoxy-[1,1′-biphenyl]-4-yl)ethoxy)pyrimidine-4-yl)cyclohex-3-ene-1-yl)propionic acid]
371 nM | N[C@@H](Cc1ccc(-c2csc3c(O[C@H](c4ccc(Cl)cc4C4=CCCOC4)C(F)(F)F)ncnc23)cc1)C(=O)O [Example 70, (S)-2-amino-3-(4-(4-((R)-1-(4-chloro-2-(5,6-dihydro-2H-pyran-3-yl)phenyl)-2,2,2-trifluoroethoxy)thieno[3,2-d]pyrimidine-7-yl)phenyl)propionic acid]

Same assay, conditions: TPH1 enzyme, 4 hours at 4° C., ex 300 nm / em 360 nm; hydrochloride

IC50 | Compound
114 nM | Cc1ccn(-c2cc(Cl)ccc2[C@@H](Oc2cc(C3=CCC(C[C@H](N)C(=O)O)CC3)nc(N)n2)C(F)(F)F)n1 (stereo partly drawn) [Example 31, (2S)-2-amino-3-(4-(2-amino-6-((R)-1-(4-chloro-2-(3-methyl-1H-pyrazole-1-yl)phenyl)-2,2,2-trifluoroethoxy)pyrimidine-4-yl)cyclohex-3-ene-1-yl)propionic acid hydrochloride]
281 nM | COc1cccc(-c2ccc([C@@H](Oc3cc(C4=CCC(C[C@H](N)C(=O)O)CC4)nc(N)n3)C(F)(F)F)cc2)c1 (stereo partly drawn) [Example 34, (2S)-2-amino-3-(4-(2-amino-6-((R)-2,2,2-trifluoro-1-(3′-methoxy-[1,1′-biphenyl]-4-yl)ethoxy)pyrimidine-4-yl)cyclohex-3-ene-1-yl)propionic acid hydrochloride]
125 nM | Nc1nc(O[C@H](c2ccc(Cl)cc2C2=CCCOC2)C(F)(F)F)cc(C2=CCC(C[C@H](N)C(=O)O)CC2)n1 (stereo partly drawn) [Example 66, (2S)-2-amino-3-(4-(2-amino-6-((R)-1-(4-chloro-2-(5,6-dihydro-2H-pyran-3-yl)phenyl)-2,2,2-trifluoroethoxy)pyrimidine-4-yl)cyclohex-3-ene-1-yl)propionic acid hydrochloride]
263 nM | N[C@@H](Cc1ccc(-c2csc3c(O[C@H](c4ccc(Cl)cc4C4=CCCOC4)C(F)(F)F)ncnc23)cc1)C(=O)O [Example 69, (S)-2-amino-3-(4-(4-((R)-1-(4-chloro-2-(5,6-dihydro-2H-pyran-3-yl)phenyl)-2,2,2-trifluoroethoxy)thieno[3,2-d]pyrimidine-7-yl)phenyl)propionic acid hydrochloride]
